In data set [1] the test system is Puccinia Recondite f. Sp. Tritici. As to the kind of experiment: Fungicidal activity against Puccinia recondita f. sp. tritici / wheat / leaf disc curative (brown rust). The format is in vivo. Conditions: foliar, 24 h, 200 ppm in the applied formulation, wheat leaf segments cv. Kanzler, applied 1 day after inoculation, compared to untreated, read-out: disease control. Here is the method:
(§1) General examples of leaf disk tests in well plates: Leaf disks or leaf segments of various plant species are cut from plants grown in a greenhouse. The cut leaf disks or segments are placed in multiwell plates (24-well format) onto water agar. The leaf disks are sprayed with a test solution before (preventative) or after (curative) inoculation. Compounds to be tested are prepared as DMSO solutions (max. 10 mg/ml) which are diluted to the appropriate concentration with 0.025% Tween20 just before spraying. The inoculated leaf disks or segments are incubated under defined conditions (temperature, relative humidity, light, etc.) according to the respective test system. A single evaluation of disease level is carried out 3 to 14 days after inoculation, depending on the pathosystem. Percent disease control relative to the untreated check leaf disks or segments is then calculated. General examples of liquid culture tests in well plates: Mycelia fragments or conidia suspensions of a fungus prepared either freshly from liquid cultures of the fungus or from cryogenic storage, are directly mixed into nutrient broth. DMSO solutions of the test compound (max. 10 mg/ml) are diluted with 0.025% Tween20 by a factor of 50 and 10 μl of this solution is pipetted into a microtiter plate (96-well format). The nutrient broth containing the fungal spores/mycelia fragments is then added to give an end concentration of the tested compound. The test plates are incubated in the dark at 24° C. and 96% relative humidity. The inhibition of fungal growth is determined photometrically after 2 to 7 days, depending on the pathosystem, and percent antifungal activity relative to the untreated check is calculated.
Example 2: Fungicidal Activity Against Puccinia Recondite f. Sp. Tritici Wheat/Leaf Disc Curative (Brown Rust)
Wheat leaf segments cv. Kanzler are placed on agar in multiwell plates (24-well format). The leaf segments are then inoculated with a spore suspension of the fungus. Plates were stored in darkness at 19° C. and 75% relative humidity. The formulated test compound diluted in water was applied 1 day after inoculation. The leaf segments were incubated at 19° C. and 75% relative humidity under a light regime of 12 hours light/12 hours darkness in a climate cabinet and the activity of a compound was assessed as percent disease control compared to untreated when an appropriate level of disease damage appears in untreated check leaf segments (6 to 8 days after application).
(§2) The following compounds at 200 ppm in the applied formulation give at least 80% disease control in this test when compared to untreated control leaf disks under the same conditions, which show extensive disease development.

For data set [2], the system named is Glomerella Lagenarium (Colletotrichum Lagenarium). The data set can be described thus: Fungicidal activity against Glomerella lagenarium (Colletotrichum lagenarium) liquid culture / cucumber / preventative (anthracnose). In kind it is cell-based. Particulars: Colletotrichum orbiculare; 20 ppm in the applied formulation; liquid culture in PDB, growth inhibition measured photometrically 3 to 4 days after application; compared to untreated; read-out: disease control. Here is the method:
as §1
Example 4: Fungicidal Activity Against Glomerella Lagenarium (Colletotrichum Lagenarium) Liquid Culture/Cucumber/Preventative (Anthracnose)
Conidia of the fungus from cryogenic storage are directly mixed into nutrient broth (PDB—potato dextrose broth). After placing a (DMSO) solution of test compound into a microtiter plate (96-well format), the nutrient broth containing the fungal spores is added. The test plates are incubated at 24° C. and the inhibition of growth is measured photometrically 3 to 4 days after application.
The following compounds at 20 ppm in the applied formulation give at least 80% disease control in this test when compared to untreated control under the same conditions, which show extensive disease development.

Data set [3] relates to Puccinia recondita f, Sp. Tritici. The data set can be described thus: Fungicidal activity against Puccinia recondita f. sp. tritici / wheat / leaf disc preventative (brown rust). The format is in vivo. Particulars: foliar, 200 ppm in the applied formulation, wheat leaf segments cv. Kanzler, inoculated 1 day after application, compared to untreated, read-out: disease control. On the procedure: as §1
Example 1: Fungicidal Activity Against Puccinia recondita f, Sp. Tritici/Wheat/Leaf Disc Preventative (Brown Rust)
Wheat leaf segments cv. Kanzler were placed on agar in multiwell plates (24-well format) and sprayed with the formulated test compound diluted in water. The leaf disks were inoculated with a spore suspension of the fungus 1 day after application. The inoculated leaf segments were incubated at 19° C. and 75% relative humidity (rh) under a light regime of 12 hours light/12 hours darkness in a climate cabinet and the activity of a compound was assessed as percent disease control compared to untreated when an appropriate level of disease damage appears in untreated check leaf segments (7 to 9 days after application).
as §2

The test system of another data set is Phakopsora pachyrhizi. The data set can be described thus: Fungicidal activity against Phakopsora pachyrhizi / soybean / leaf disc preventative (Asian soybean rust). Conditions: foliar, 200 ppm in the applied formulation, soybean leaf disks, inoculated one day after application, compared to untreated, read-out: disease control. The format is in vivo. Here is the method: as §1
Example 3: Fungicidal Activity Against Phakopsora pachyrhizi/Soybean/Leaf Disc Preventative (Asian Soybean Rust)
Soybean leaf disks are placed on water agar in multiwell plates (24-well format) and sprayed with the formulated test compound diluted in water. One day after application leaf discs are inoculated by spraying a spore suspension on the lower leaf surface. After an incubation period in a climate cabinet of 24-36 hours in darkness at 20° C. and 75% rh leaf disc are kept at 20° C. with 12 h light/day and 75% rh. The activity of a compound is assessed as percent disease control compared to untreated when an appropriate level of disease damage appears in untreated check leaf disks (12 to 14 days after application).
as §2

Molecule `O=C(NCc1ccc(-c2noc(C(F)(F)F)n2)cc1)NC1CC1` [Compound 2.3, 1-cyclopropyl-3-[[4-[5-(trifluoromethyl)-1,2,4-oxadiazol-3-yl]phenyl]methyl]urea] registered a melting point of 176 to 180.1 °C. In addition, in data set [1], the pest or weed control at 200 ppm was no less than 80%. In addition, the inhibition of growth at 20 ppm in data set [2] was no less than 80%. The pest or weed control at 200 ppm in data set [3] was no less than 80%. Besides, the pest or weed control at 200 ppm in the data set with Phakopsora pachyrhizi is no less than 80%.

In turn, `O=C(NCc1ccc(-c2noc(C(F)(F)F)n2)cc1F)NC1CC1` [Compound 2.4, 1-cyclopropyl-3-[[2-fluoro-4-[5-(trifluoromethyl)-1,2,4-oxadiazol-3-yl]phenyl]methyl]urea] displayed a melting point of 150.1 to 152.4 °C. The pest or weed control at 200 ppm in data set [1] is no less than 80%. Besides, in data set [2], the inhibition of growth at 20 ppm was no less than 80%. Besides, in data set [3], the pest or weed control at 200 ppm was no less than 80%. The pest or weed control at 200 ppm in the data set with Phakopsora pachyrhizi was no less than 80%.

For the molecule `O=C(NCc1ccc(-c2noc(C(F)(F)F)n2)c(F)c1)NC1CC1` [Compound 2.20, 1-cyclopropyl-3-[[3-fluoro-4-[5-(trifluoromethyl)-1,2,4-oxadiazol-3-yl]phenyl]methyl]urea], the melting point was 169 to 173 °C. The pest or weed control at 200 ppm in data set [1] was no less than 80%. Further, the inhibition of growth at 20 ppm in data set [2] was no less than 80%. Also, in data set [3], the pest or weed control at 200 ppm is no less than 80%. Also, the pest or weed control at 200 ppm in the data set with Phakopsora pachyrhizi is no less than 80%.

In turn, `O=C(NCc1ccc(-c2noc(C(F)(F)F)n2)cc1)n1ccnc1` [Compound 3.1, N-[[4-[5-(trifluoromethyl)-1,2,4-oxadiazol-3-yl]phenyl]methyl] imidazole-1-carboxamide] displayed a melting point of 97 to 102 °C. Also, in data set [1], the pest or weed control at 200 ppm was no less than 80%. The inhibition of growth at 20 ppm in data set [2] is no less than 80%. For the same molecule, the pest or weed control at 200 ppm in data set [3] was no less than 80%. The pest or weed control at 200 ppm with Phakopsora pachyrhizi was no less than 80%.

Molecule `O=C(NCc1ccc(-c2noc(C(F)(F)F)n2)cc1)N1CCOCC1` [Compound 3.2, N-[[4-[5-(trifluoromethyl)-1,2,4-oxadiazol-3-yl]phenyl]methyl] morpholine-4-carboxamide] showed a melting point of 112 to 115 °C. Also, the pest or weed control at 200 ppm in data set [1] is no less than 80%. Besides, the inhibition of growth at 20 ppm in data set [2] was no less than 80%. Further, the pest or weed control at 200 ppm in data set [3] was no less than 80%. Besides, the pest or weed control at 200 ppm with Phakopsora pachyrhizi is no less than 80%.

Broadly, the melting point is the temperature, or range, at which the solid turns liquid.

For the origin of these results see US20190364899A1, “MICROBIOCIDAL OXADIAZOLE DERIVATIVES” (SYNGENTA PARTICIPATIONS AG, priority 2015, published 2019).
